Measurements: patent US11331299B2, “Medicinal use of serrulatane diterpenes” (The University of Sydney, priority 2016, dated 2022)
“And” between values parts separate entries of the source, which are not always exact repeats. Equal entries are not always repeated. Where two headings read alike, the source gives them in different places.

Tests used:
[1] = test system: Toll-like receptor 4 (TLR4) activation on human peripheral blood mononuclear cells (PBMC's); assay: TLR4 inhibition assay, LPS-induced cytokine release; assay type: cell-based; details: for IC50: Homo sapiens, PBMC, 24 h, 24-hour LPS stimulation
histamine H1 (h) = histamine H1 (h) (Homo sapiens, UniProt P35367); assay: Bioprint radioligand binding assay
enzymes (Bioprint panel) [2] = biological target: enzymes (Bioprint panel) (Bos taurus, UniProt P80457); assay: biochemical; details: xanthine oxidase/superoxide O2- scavenging; 10 μM; read-out: % Inhibition of Control Values
enzymes (Bioprint panel) [3] = biological target: enzymes (Bioprint panel) (Homo sapiens, UniProt P03956); assay: biochemical; details: MMP-1 (h); 10 μM; read-out: % Inhibition of Control Values
enzymes (Bioprint panel) [4] = biological target: enzymes (Bioprint panel) (Homo sapiens, UniProt P07948); assay: biochemical; details: Lyn A kinase (h); 10 μM; read-out: % Inhibition of Control Values
enzymes (Bioprint panel) [5] = biological target: enzymes (Bioprint panel) (Homo sapiens, UniProt P17948); assay: biochemical; details: FLT-1 kinase (h) (VEGFR1); 10 μM; read-out: % Inhibition of Control Values
enzymes (Bioprint panel) [6] = biological target: enzymes (Bioprint panel) (Homo sapiens, UniProt P28482); assay: biochemical; details: ERK2 (h) (P42mapk); 10 μM; read-out: % Inhibition of Control Values
enzymes (Bioprint panel) [7] = biological target: enzymes (Bioprint panel) (Homo sapiens, UniProt Q9UQM7); assay: biochemical; details: CaMK2alpha (h); 10 μM; read-out: % Inhibition of Control Values
enzymes (Bioprint panel) [8] = biological target: T1, enzymes (Bioprint panel) (UniProt P04585); assay: biochemical; details: HIV-1 protease; 10 μM
T1 construct: other: HIV-1 protease; 10 μM

HMEC = assay: OncoPanel normal cell proliferation assay (3-day); assay type: cell-based; details: Homo sapiens, 72 h, HMEC, mammary epithelial, 3-day incubation
[9] = assay type: in vivo, female NOD/SCID mice; details: for Body Weight: single animals No. 1-3
Method: Two studies were conducted by Eurofins Panlabs Taiwan, Ltd. The purpose of Study 1 was to assess the possible adverse effects of Compound 1 alone or in combination with […] in Maximum Tolerated Dose (MTD) assay. The purpose of Study 2 is a follow-up study performed at escalating doses.
Compound 1 was dissolved in 10% Tween 20/90% PBS or 20% Tween 20/80% PBS for IP injections. Compound 1 was administrated alone or in combination with […] at a dosing volume of 10 or 20 mL/kg for each substance.
For mortality, test substance (Compound 1; 100 mg/kg) alone or in combination with […] (8.75, 17.5, or 35 mg/kg; given on the same day) was administered to mice by IP injection to evaluate the possible adverse effects in MTD assay. […]. […]
A follow-up MTD study was performed to evaluate for the adverse effects of the test substance (Compound 1) at escalating doses alone or in combination with […] (17.5 mg/kg) via IP in a group of 3 female NOD/SCID mice at 6-7 weeks of age.
For mortality, treatment with Compound 1 at escalating doses (200 mg/kg) alone and in combination with […] (17.5 mg/kg; given on the same day) were administered by IP injection to a group of 3 female NOD/SCID mice at 6-7 weeks of age. The mortality was monitored at 30 min and again at 3, 24, 48 and 72 hours after compound administrations.
For body weight, test substance (Compound 1) at escalating doses (200 mg/kg) alone or in combination with […] (17.5 mg/kg; given on the same day) were administered by IP injection to a group of 3 female NOD/SCID mice at 6-7 weeks of age. The body weight of each animal was measured and recorded daily for 3 days.
For behavioral, symptomatic i.e. neurological and autonomic signs, test substance (Compound 1; 200 mg/kg) alone or in combination with […] (17.5 mg/kg; given on the same day) were administered by IP injection to a group of 3 female NOD/SCID mice at 6-7 weeks of age. The animals were then observed for presences of acute toxic symptoms and autonomic effects for 30 min after the first dose.

NSD1 (h) = NSD1 (h) (Homo sapiens, UniProt Q96L73); details: read-out: Reference: (IC50 not given); cited from earlier work
SETD2(h) = SETD2(h) (Homo sapiens, UniProt Q9BYW2); details: read-out: Reference: (IC50 not given); cited from earlier work
[10] = 200 mg/kg IP, individual mice No. 1-3, 30 min after first dose, Study 2 Round 1
Wherever Autonomic signs: Death is given: key: −: no effects; ±: Slight to moderate effects; +: Severe effects; ↓: Low; D: Deep.
Wherever Autonomic signs: Dec. Palpebral Size is given: key: −: no effects; ±: Slight to moderate effects; +: Severe effects; ↓: Low; D: Deep.
Wherever Autonomic signs: Diarrhea is given: key: −: no effects; ±: Slight to moderate effects; +: Severe effects; ↓: Low; D: Deep.
Wherever Autonomic signs: Inc. Palpebral Size is given: key: −: no effects; ±: Slight to moderate effects; +: Severe effects; ↓: Low; D: Deep.

Sequence of histamine H1 (h) (P35367 whole entry): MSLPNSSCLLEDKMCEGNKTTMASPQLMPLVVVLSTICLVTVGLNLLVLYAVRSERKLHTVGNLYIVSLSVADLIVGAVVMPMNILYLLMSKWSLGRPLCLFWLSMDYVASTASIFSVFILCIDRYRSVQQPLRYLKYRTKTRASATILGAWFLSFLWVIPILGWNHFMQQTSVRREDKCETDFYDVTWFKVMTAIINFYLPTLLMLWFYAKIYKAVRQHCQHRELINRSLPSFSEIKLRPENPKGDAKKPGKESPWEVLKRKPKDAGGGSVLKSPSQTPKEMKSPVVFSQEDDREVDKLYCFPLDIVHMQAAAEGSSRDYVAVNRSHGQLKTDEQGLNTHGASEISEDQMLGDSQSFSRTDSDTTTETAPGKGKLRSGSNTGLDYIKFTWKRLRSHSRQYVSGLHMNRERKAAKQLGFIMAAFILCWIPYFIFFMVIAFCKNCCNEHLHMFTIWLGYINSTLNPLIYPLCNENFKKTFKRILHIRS
Sequence of SETD2(h) (Q9BYW2 whole entry): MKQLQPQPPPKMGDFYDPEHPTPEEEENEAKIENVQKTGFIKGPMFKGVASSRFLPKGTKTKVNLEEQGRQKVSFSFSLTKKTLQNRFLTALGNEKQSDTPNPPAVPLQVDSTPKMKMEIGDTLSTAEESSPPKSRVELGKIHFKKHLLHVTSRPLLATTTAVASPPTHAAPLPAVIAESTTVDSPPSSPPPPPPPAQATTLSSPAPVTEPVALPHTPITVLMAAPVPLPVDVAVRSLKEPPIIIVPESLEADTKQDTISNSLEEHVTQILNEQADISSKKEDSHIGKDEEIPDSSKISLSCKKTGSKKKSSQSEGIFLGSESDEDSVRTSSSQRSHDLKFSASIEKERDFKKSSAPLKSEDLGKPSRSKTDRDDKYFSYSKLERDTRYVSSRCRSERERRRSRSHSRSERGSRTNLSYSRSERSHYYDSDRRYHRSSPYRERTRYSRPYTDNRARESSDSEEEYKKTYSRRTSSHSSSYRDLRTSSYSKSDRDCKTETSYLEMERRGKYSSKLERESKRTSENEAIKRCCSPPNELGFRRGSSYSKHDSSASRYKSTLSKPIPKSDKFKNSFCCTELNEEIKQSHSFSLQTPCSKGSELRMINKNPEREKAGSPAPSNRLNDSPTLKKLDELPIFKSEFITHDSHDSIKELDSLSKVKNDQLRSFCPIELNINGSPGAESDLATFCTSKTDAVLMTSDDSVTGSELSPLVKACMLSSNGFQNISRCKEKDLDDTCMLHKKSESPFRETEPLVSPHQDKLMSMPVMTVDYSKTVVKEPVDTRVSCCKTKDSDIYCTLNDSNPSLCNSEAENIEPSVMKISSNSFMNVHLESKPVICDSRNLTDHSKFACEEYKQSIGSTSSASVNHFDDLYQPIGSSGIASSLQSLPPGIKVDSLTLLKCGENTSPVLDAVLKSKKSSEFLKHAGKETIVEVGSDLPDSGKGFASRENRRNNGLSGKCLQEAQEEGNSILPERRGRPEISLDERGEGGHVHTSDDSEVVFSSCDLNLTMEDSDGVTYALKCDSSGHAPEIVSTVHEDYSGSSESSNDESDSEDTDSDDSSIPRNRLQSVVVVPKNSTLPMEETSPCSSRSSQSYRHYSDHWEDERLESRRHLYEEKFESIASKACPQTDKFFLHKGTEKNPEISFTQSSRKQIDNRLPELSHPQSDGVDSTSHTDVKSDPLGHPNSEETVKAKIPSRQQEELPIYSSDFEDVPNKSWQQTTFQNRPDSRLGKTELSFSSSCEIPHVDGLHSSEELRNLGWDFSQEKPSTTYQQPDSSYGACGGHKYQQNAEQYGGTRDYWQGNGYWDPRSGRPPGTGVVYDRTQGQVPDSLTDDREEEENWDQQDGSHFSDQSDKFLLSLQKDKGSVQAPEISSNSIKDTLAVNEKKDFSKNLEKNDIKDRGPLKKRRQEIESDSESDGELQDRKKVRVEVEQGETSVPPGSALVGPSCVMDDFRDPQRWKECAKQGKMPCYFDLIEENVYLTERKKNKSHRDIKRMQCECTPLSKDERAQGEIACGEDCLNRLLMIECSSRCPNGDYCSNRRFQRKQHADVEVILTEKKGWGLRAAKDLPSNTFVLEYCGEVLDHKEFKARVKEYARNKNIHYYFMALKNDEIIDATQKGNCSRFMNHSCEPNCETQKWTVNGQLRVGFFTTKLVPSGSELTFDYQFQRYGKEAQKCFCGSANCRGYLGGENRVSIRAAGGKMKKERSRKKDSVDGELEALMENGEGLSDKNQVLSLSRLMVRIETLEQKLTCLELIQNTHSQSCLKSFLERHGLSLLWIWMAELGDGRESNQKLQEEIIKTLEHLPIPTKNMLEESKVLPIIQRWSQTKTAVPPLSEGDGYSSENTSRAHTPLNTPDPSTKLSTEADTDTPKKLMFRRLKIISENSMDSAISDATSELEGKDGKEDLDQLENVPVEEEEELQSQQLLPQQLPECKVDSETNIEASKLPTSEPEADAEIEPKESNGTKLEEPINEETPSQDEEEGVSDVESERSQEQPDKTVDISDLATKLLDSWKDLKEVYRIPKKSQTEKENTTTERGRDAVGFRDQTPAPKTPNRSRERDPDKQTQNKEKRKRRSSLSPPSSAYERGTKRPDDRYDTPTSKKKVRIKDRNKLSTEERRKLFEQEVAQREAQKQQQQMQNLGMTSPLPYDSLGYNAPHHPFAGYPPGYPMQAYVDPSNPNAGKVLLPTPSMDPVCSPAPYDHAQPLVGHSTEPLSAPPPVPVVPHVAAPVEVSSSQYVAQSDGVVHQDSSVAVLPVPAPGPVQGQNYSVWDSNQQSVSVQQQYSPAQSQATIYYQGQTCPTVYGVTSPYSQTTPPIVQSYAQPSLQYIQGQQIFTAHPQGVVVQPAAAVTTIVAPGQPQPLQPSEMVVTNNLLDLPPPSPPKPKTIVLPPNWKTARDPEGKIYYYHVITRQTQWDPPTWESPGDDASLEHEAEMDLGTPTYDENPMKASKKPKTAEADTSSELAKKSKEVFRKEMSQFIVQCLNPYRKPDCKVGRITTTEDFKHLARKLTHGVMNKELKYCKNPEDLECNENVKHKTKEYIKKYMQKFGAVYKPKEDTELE
Sequence of enzymes (Bioprint panel) (Homo sapiens, UniProt Q9UQM7) (Q9UQM7 whole entry): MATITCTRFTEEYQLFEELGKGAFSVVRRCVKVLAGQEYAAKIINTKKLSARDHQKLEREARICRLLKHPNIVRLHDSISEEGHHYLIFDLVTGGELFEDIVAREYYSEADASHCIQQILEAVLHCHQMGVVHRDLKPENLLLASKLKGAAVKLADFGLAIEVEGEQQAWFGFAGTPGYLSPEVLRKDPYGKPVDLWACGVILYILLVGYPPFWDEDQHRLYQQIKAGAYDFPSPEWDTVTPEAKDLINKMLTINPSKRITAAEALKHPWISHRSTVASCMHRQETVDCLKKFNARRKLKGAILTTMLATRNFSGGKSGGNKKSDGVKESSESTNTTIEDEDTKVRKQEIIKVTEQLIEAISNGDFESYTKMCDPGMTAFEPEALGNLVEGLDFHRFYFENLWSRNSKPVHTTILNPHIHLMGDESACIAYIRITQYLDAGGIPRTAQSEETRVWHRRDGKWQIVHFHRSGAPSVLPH
Sequence of enzymes (Bioprint panel) (Homo sapiens, UniProt P03956) (P03956 100-469): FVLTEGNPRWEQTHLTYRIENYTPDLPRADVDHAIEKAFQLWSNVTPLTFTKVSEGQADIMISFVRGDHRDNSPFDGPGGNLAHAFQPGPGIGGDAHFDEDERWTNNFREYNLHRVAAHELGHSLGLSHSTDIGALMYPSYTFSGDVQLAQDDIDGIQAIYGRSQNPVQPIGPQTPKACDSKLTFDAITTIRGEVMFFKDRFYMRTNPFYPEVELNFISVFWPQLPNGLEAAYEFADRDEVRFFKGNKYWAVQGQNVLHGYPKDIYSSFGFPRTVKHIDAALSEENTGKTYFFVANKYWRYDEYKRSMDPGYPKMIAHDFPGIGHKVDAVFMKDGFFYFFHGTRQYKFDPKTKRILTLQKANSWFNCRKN
Sequence of enzymes (Bioprint panel) (Homo sapiens, UniProt P07948) (P07948 whole entry): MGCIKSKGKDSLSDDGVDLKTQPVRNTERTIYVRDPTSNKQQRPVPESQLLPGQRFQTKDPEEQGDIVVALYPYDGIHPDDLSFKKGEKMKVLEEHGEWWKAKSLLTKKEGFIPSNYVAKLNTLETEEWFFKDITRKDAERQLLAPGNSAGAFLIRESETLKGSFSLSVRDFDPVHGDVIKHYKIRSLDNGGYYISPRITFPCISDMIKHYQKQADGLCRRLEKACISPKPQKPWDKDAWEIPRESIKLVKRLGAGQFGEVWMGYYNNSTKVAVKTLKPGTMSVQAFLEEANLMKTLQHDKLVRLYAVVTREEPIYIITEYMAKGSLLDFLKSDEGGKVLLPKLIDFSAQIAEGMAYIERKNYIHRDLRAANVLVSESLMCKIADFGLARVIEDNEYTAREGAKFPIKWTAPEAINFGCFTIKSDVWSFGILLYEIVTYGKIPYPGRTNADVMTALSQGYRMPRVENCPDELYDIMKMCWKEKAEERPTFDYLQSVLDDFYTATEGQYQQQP
Sequence of enzymes (Bioprint panel) (Homo sapiens, UniProt P28482) (P28482 whole entry): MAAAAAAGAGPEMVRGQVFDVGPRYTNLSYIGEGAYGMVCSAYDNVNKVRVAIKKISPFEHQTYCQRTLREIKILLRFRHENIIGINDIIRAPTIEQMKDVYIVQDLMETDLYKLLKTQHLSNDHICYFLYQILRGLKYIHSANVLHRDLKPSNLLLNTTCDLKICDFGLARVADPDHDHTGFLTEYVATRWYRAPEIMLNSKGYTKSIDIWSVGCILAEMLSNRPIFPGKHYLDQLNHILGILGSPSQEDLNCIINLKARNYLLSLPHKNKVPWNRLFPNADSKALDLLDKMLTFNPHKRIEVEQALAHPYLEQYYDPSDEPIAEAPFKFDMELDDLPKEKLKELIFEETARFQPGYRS

In the case of `CC(C)=CCC[C@H](CO)[C@@H]1CC[C@@H](C)c2c1cc(C)c(O)c2O` [Compound 1, 7,8,18-trihydroxyserrulat-14-ene], the IC50 ([1]; read-out: IC50, LPS-induced IL-1β release) is reported as 6.6 µM, the IC50 ([1]; read-out: IC50, LPS-induced IL-6 release) is reported as 8.8 µM and the IC50 ([1]; read-out: IC50, LPS-induced IL-10 release) is reported as 4.3 µM. For the same molecule, the IC50 ([1]; read-out: IC50, LPS-induced TNFα release) was 8.9 µM, the IC50 ([1]; I-1β, human PBMC, read-out: LPS-induced cytokine IC50) was 6.6 µM and the IC50 ([1]; IL-6, human PBMC, read-out: LPS-induced cytokine IC50) was 8.8 µM. For the same molecule, the IC50 ([1]; IL-10, human PBMC, read-out: LPS-induced cytokine IC50) was 4.3 µM, the IC50 ([1]; TNF-α, human PBMC, read-out: LPS-induced cytokine IC50) was 8.9 µM and the “inhibition of the secretion of all cytokines” value ([1]; top test concentration) was “moderate to strong inhibition”. For the same molecule, the inhibition at 10 µM (histamine H1 (h); HISTAMINE H1 (h) (antagonist radioligand), read-out: % Inhibition of Control Specific Binding) was 64%, the inhibition at 10 µM (histamine H1 (h); read-out: % inhibition of control specific binding) was 64% and the inhibition at 10 µM (enzymes (Bioprint panel) [2]) was -140%. The inhibition at 10 µM (enzymes (Bioprint panel) [3]) was -2%, the inhibition at 10 µM (enzymes (Bioprint panel) [4]) was 9% and the inhibition at 10 µM (enzymes (Bioprint panel) [5]) was 36%. The inhibition at 10 µM (enzymes (Bioprint panel) [6]) was 6%, the inhibition at 10 µM (enzymes (Bioprint panel) [7]) was 2% and the “% Inhibition of Control Values” (enzymes (Bioprint panel) [8]) was 9%. It also gave an EC50 (HMEC; read-out: Cell Count EC50) of 30 µM, a GI50 (HMEC; read-out: Cell Count GI50) of 6.39 µM and an IC50 (HMEC; read-out: Cell Count IC50) of 30 µM. For the same molecule, the “Autonomic signs: Body Temperature” value [9, 10] was “↓+”, the “Autonomic signs: Death” value [9, 10] was “−” and the “Autonomic signs: Dec. Palpebral Size” value [9, 10] was “−”. For the same molecule, the “Autonomic signs: Diarrhea” value [9, 10] was “−”, the “Autonomic signs: Inc. Palpebral Size” value [9, 10] was “−” and the “Autonomic signs: Lacrimation” value [9, 10] was “−”. The “Autonomic signs: Others” value [9, 10] was “−”, the “Autonomic signs: Piloerection” value [9, 10] was “−” and the “Autonomic signs: Salivation F.V.” value [9, 10] was “−”. For the same molecule, the “Autonomic signs: Skin Color” value [9, 10] was “−”, the adverse effects ([9]; Study 1, Compound 1 100 mg/kg IP alone) was “did not elicit significant adverse effects” and the survival ([9]; Study 1, Compound 1 100 mg/kg IP alone, 72-hour observation period) was “All test animals survived”. The “Response (death/test)” value ([9]; Study 1, IP, 100 mg/kg, 30 min) was 0/3, the “Response (death/test)” value ([9]; Study 1, IP, 100 mg/kg, 3 hrs) was 0/3 and the “Response (death/test)” value ([9]; Study 1, IP, 100 mg/kg, Day 1) was 0/3. For the same molecule, the “Response (death/test)” value ([9]; Study 1, IP, 100 mg/kg, Day 2) was 0/3, the “Response (death/test)” value ([9]; Study 1, IP, 100 mg/kg, Day 3) was 0/3 and the autonomic sign ([9]; Study 2, 200 mg/kg IP, 30 min after dose) was “Hypothermia”. The “Response (death/test)” value ([9]; Study 2, IP, 200 mg/kg, 30 min) was 0/3, the “Response (death/test)” value ([9]; Study 2, IP, 200 mg/kg, 3 hrs) was 0/3 and the “Body Weight” value ([9]; Study 2, IP, 200 mg/kg, Day 0, 200 mg/kg) was 22 g and 21 g (2×). The “Response (death/test)” value ([9]; Study 2, IP, 200 mg/kg, Day 1) was 1/3, the “Body Weight” value ([9]; Study 2, IP, 200 mg/kg, Day 1) was 21 g and the “Response (death/test)” value ([9]; Study 2, IP, 200 mg/kg, Day 2) was 3/3. For the same molecule, the “Response (death/test)” value ([9]; Study 2, IP, 200 mg/kg, Day 3) was 3/3 and the “B.W.” value ([9]; Study 2 Round 1, signs table, IP, 200 mg/kg, animals No. 1-3) was 22 g and 21 g.
For `Nc1ncnc2c1ncn2[C@@H]1O[C@H](CSCC[C@H](N)C(=O)O)[C@@H](O)[C@H]1O` [SAH], the IC50 (NSD1 (h)) is listed as 970 nM and the IC50 (SETD2(h)) is listed as 1200 nM.
